Values after ≈ are worked out from the molar mass of the structure shown. Read-outs that look alike come from different tables or passages of the source.
How the values were obtained:
[1] = system: Bacteroides vulgatus; assay: Antimicrobial agar dilution test of anaerobic bacteria (MIC); assay type: cell-based; settings: 48 h
[2] = system: Bacteroides fragilis; assay: as above; assay type: cell-based; settings: 48 h
[3] = system: Bacteroides thetaiotaomicron; assay type: cell-based; settings: agar dilution, anaerobic, 48 h
[4] = system: E coli; assay: Microdilution antimicrobial susceptibility test (MIC); assay type: cell-based; settings: broth microdilution, 18-24 h, MIC = 90% inhibition of growth; for MIC: read-out: MIC E coli MIC2
[5] = system: E coli (ImpA); assay: as above; assay type: cell-based; settings: broth microdilution, 18-24 h, MIC = 90% inhibition of growth; for MIC: read-out: MIC E coli (ImpA) MIC9
Description: Microdilution Antimicrobial Susceptibility Test Assay
Stock solutions of tested compounds were prepared in N,N-dimethylformamide (DMF) at a concentration of 5 mg/mL. Working solutions of the tested compounds were then prepared from the stock solutions, in Mueller-Hinton broth (MHB) with a starting concentration of 64 μg/mL.
Bacterial inocula were prepared from overnight culture (i.e., one fresh colony from agar plate in 5 ml MHB; H. influenzae was grown in MHB with the addition of yeast extract, haematin, and NAD), centrifuged 2×5 min/3000 rpm (for S. pneumoniae and H. influenzae, 2×10 min/3000 rpm), and dispensed in 5 ml of fresh MHB each time, such that the bacterial suspension is diluted to obtain 100 colony forming units (cfu) in a microplate well (100 μl total volume).
Microplate wells were filled with two-fold dilutions of test compound (50 Al), starting with 64 μg/ml. Wells were then filled with 50 μl of bacterial inoculum (final volume: 100 μl/well). The plates were incubated at 37° C. for 18-24 hours (S. pneumoniae was grown in a CO2-enriched atmosphere).

[6] = system: S aureus; assay: as above; assay type: cell-based; settings: broth microdilution, 18-24 h, MIC = 90% inhibition of growth; for MIC: read-out: MIC S aureus MIC2
[7] = system: E faecalis; assay: as above; assay type: cell-based; settings: broth microdilution, 18-24 h, MIC = 90% inhibition of growth; for MIC: read-out: MIC E faecalis MIC2
[8] = system: S pneumoniae; assay: as above; assay type: cell-based; settings: broth microdilution, 18-24 h, CO2-enriched atmosphere, MIC = 90% inhibition of growth; for MIC: read-out: MIC S pneumoniae MIC6
[9] = system: M. catarrhalis; assay: as above; assay type: cell-based; settings: broth microdilution, 18-24 h, MIC = 90% inhibition of growth; for MIC: Moraxella catarrhalis, read-out: MIC M. catarrhalis MIC2
[10] = system: H influenzae; assay: as above; assay type: cell-based; settings: broth microdilution, 18-24 h, MIC = 90% inhibition of growth; for MIC: read-out: MIC H influenzae MIC4
[11] = system: S cerevisiae; assay: as above; assay type: cell-based; settings: broth microdilution, 18-24 h, MIC = 90% inhibition of growth; for MIC: read-out: MIC S cerevisiae MIC7
[12] = system: P aeruginosa; assay: as above; assay type: cell-based; settings: broth microdilution, 18-24 h, MIC = 90% inhibition of growth; for MIC: read-out: MIC P aeruginosa MIC2
[13] = system: E. coli; assay: Systemic bacterial infection model, mice infected with E. coli
[14] = system: Clostridium perfringens; assay type: cell-based; settings: disk 200 μg, anaerobic, 24-48 h
[15] = system: Bacteroides fragilis; assay type: cell-based
[16] = system: Peptostreptococcus sp; assay type: cell-based
[17] = system: S. aureus; assay: Systemic bacterial infection model, mice infected with S. aureus

| SMILES | MIC Bacteroides vulgatus [1] [µg/mL] | MIC Bacteroides fragilis ([2]; first B. fragilis column) [µg/mL] | MIC Bacteroides fragilis ([2]; second B. fragilis column) [µg/mL] | MIC Bacteroides fragilis ([2]; third B. fragilis column) [µg/mL] | MIC Bacteroides thetaiotaomicron [3] [µg/mL] | MIC E coli MIC2 [4] [µg/mL] | MIC E coli (ImpA) MIC9 [5] [µg/mL] | MIC S aureus MIC2 [6] [µg/mL] | MIC E faecalis MIC2 [7] [µg/mL] | MIC S pneumoniae MIC6 [8] [µg/mL] | MIC M. catarrhalis MIC2 [9] [µg/mL] | MIC H influenzae MIC4 [10] [µg/mL] | MIC S cerevisiae MIC7 [11] [µg/mL] | MIC P aeruginosa MIC2 [12] [µg/mL] | further results |
| --- | --- | --- | --- | --- | --- | --- | --- | --- | --- | --- | --- | --- | --- | --- | --- |
| CC[C@H]1OC(=O)[C@H](C)[C@@H](O[C@H]2C[C@@](C)(OC)[C@@H](O)[C@H](C)O2)[C@H](C)[C@@H](O[C@@H]2O[C@H](C)C[C@H](N(C)C)[C@H]2O)[C@](C)(O)C[C@@H](C)CN(C)[C@H](C)[C@@H](O)[C@]1(C)O [Azithromycin] | 1 (≈ 1.34 µM) | 4 (≈ 5.34 µM) | 4 (≈ 5.34 µM) | 4 (≈ 5.34 µM) | 4 (≈ 5.34 µM) | – | – | – | – | – | – | – | – | – | – |
| O=C(N[C@H](CO)[C@H](O)c1ccc([N+](=O)[O-])cc1)C(Cl)Cl [Chloramphenicol] | < 0.125 | 4 (≈ 12.4 µM) | 4 (≈ 12.4 µM) | 4 (≈ 12.4 µM) | 4 (≈ 12.4 µM) | – | – | – | – | – | – | – | – | – | – |
| CCC[C@@H]1C[C@@H](C(=O)N[C@@H]([C@H]2O[C@H](SC)[C@H](O)[C@@H](O)[C@H]2O)[C@H](C)Cl)N(C)C1 [Clindamycin] | < 0.125 | 1 (≈ 2.35 µM) | 1 (≈ 2.35 µM) | 1 (≈ 2.35 µM) | – | – | – | – | – | – | – | – | – | – | – |
| Cn1c(-c2ccc([N+](=O)[O-])o2)nnc1S(=O)(=O)O [Compound 107, 5-[2-(5-Nitro)furyl]-4-methyl-4H-1,2,4-triazole-3-sulfonic Acid] | – | – | – | – | – | – | – | – | – | – | – | – | – | – | MIC [4]: 2 µg/mL (≈ 7.29 µM); MIC [5]: 4 µg/mL (≈ 14.6 µM); MIC [6]: 16 µg/mL (≈ 58.3 µM); MIC [7]: > 64 µg/mL; MIC [8]: 32 µg/mL (≈ 117 µM); MIC [9]: 1 µg/mL (≈ 3.65 µM); MIC [10]: 16 µg/mL (≈ 58.3 µM); MIC [11]: 64 µg/mL (≈ 233 µM); MIC [12]: > 64 µg/mL; Survival (%) ([13]; Study #4, 50 mg/kg IP QD × 3, 6 days observation): 70%; Survival (%) ([13]; Study #4, 75 mg/kg IP QD × 3, 6 days observation): 90% |
| O=[N+]([O-])c1ccc(-c2nnc(S)n2Cc2ccco2)o1 [Compound 125] | – | – | – | – | – | >64 | 4 (≈ 13.7 µM) | 8 (≈ 27.4 µM) | 64 (≈ 219 µM) | 8 (≈ 27.4 µM) | 0.5 (≈ 1.71 µM) | 4 (≈ 13.7 µM) | >64 | >64 | – |
| O=[N+]([O-])c1ccc(-c2nnc(S(=O)(=O)O)n2-c2ccccc2)o1 [Compound 127] | – | – | – | – | – | >64 | 64 (≈ 190 µM) | >64 | >64 | >64 | 32 (≈ 95.2 µM) | >64 | >64 | >64 | – |
| O=[N+]([O-])c1ccc(-c2nnc(S(=O)(=O)O)n2Cc2ccccc2)o1 [Compound 128] | – | – | – | – | – | >64 | >64 | >64 | >64 | 64 (≈ 183 µM) | 16 (≈ 45.7 µM) | 64 (≈ 183 µM) | >64 | >64 | – |
| O=[N+]([O-])c1ccc(-c2nnc(S(=O)(=O)O)n2C2CCCCC2)o1 [Compound 131] | – | – | – | – | – | >64 | >64 | >64 | >64 | 64 (≈ 187 µM) | 8 (≈ 23.4 µM) | 64 (≈ 187 µM) | >64 | >64 | – |
| O=[N+]([O-])c1ccc(-c2nnc(S(=O)(=O)O)n2-c2ccc(Cl)cc2)o1 [Compound 132] | – | – | – | – | – | >64 | 16 (≈ 43.2 µM) | 32 (≈ 86.3 µM) | >64 | 32 (≈ 86.3 µM) | 4 (≈ 10.8 µM) | 8 (≈ 21.6 µM) | 64 (≈ 173 µM) | >64 | – |
| O=[N+]([O-])c1ccc(-c2nnc(S)n2-c2cccc(Cl)c2)o1 [Compound 140] | – | – | – | – | – | >64 | 0.5 (≈ 1.55 µM) | 1 (≈ 3.1 µM) | 16 (≈ 49.6 µM) | 2 (≈ 6.2 µM) | <0.12 | 4 (≈ 12.4 µM) | >64 | >64 | – |
| O=[N+]([O-])c1ccc(-c2nnc(S)n2-c2ccc(Oc3ccccc3)cc2)o1 [Compound 143] | – | – | – | – | – | >64 | <0.12 | 0.25 (≈ 0.657 µM) | 1 (≈ 2.63 µM) | 0.5 (≈ 1.31 µM) | <0.12 | >64 | >64 | >64 | – |
| C[C@@H](O)[C@H]1C(=O)N2C(C(=O)O)=C(SCCN=CN)C[C@H]12 [Imipenem] | < 0.125 | < 0.125 | < 0.125 | < 0.125 | < 0.125 | – | – | – | – | – | – | – | – | – | – |
| O=C1CN(/N=C/c2ccc([N+](=O)[O-])o2)C(=O)N1 [Nitrofurantoin, reference compound] | < 0.125 | 2 (≈ 8.4 µM) | 2 (≈ 8.4 µM) | 2 (≈ 8.4 µM) | 2 (≈ 8.4 µM) | – | – | – | – | – | – | – | – | – | MIC [4]: 8 µg/mL (≈ 33.6 µM); MIC [6]: 16 µg/mL (≈ 67.2 µM); MIC [7]: 4 µg/mL (≈ 16.8 µM); MIC [8]: 2 µg/mL (≈ 8.4 µM); MIC [9]: 2 µg/mL (≈ 8.4 µM); MIC [10]: 4 µg/mL (≈ 16.8 µM); MIC [11]: > 64 µg/mL; MIC [12]: > 64 µg/mL; Inhibition zones ([14]; Clostridium perfringens (fresh wound isolate)): 21 mm; Inhibition zones ([14]; Clostridium perfringens, diameter includes disk): >25 mm**; Inhibition zones [15]: >25 mm**; Inhibition zones [16]: 12 mm**; Survival (%) ([13]; Study #3, 50 mg/kg IP QD × 3, 6 days observation): 0%; Survival (%) ([13]; Study #3, 75 mg/kg IP QD × 3, 6 days observation): 20%; Survival (%) ([13]; Study #3, 100 mg/kg IP QD × 3, 6 days observation): 0%; Survival (%) ([17]; Study #2, 25 mg/kg IP QD × 3, 6 days observation): 50%; Survival (%) ([17]; Study #2, 50 mg/kg IP QD × 3, 6 days observation): 50% |
| CCN1CCN(C(=O)N[C@@H](C(=O)N[C@@H]2C(=O)N3[C@@H]2SC(C)(C)[C@@H]3C(=O)O)c2ccccc2)C(=O)C1=O [Piperacillin] | 128 (≈ 247 µM) | 2 (≈ 3.86 µM) | 16 (≈ 30.9 µM) | 2 (≈ 3.86 µM) | 16 (≈ 30.9 µM) | – | – | – | – | – | – | – | – | – | – |
| COc1cc(Cc2cnc(N)nc2N)cc(OC)c1OC [Trimethoprim, reference compound] | – | – | – | – | – | – | – | – | – | – | – | – | – | – | MIC [4]: 0.25 µg/mL (≈ 0.861 µM); MIC [5]: < 0.12 µg/mL; MIC [6]: 2 µg/mL (≈ 6.89 µM); MIC [7]: < 0.12 µg/mL; MIC [8]: 8 µg/mL (≈ 27.6 µM); MIC [9]: 32 µg/mL (≈ 110 µM); MIC [10]: < 0.12 µg/mL; MIC [11]: > 64 µg/mL; MIC [12]: > 64 µg/mL |
